In one series the test system is rats. Put plainly: Glucose suppression / pulmonary absorption after intratracheal administration of PEG-insulins (Example 23). It is filed as in vivo, rat. The following applies: for glucose suppression profile compared to insulin control: 20-80 μg/animal equivalent insulin mass (FIGS. 8b, 9b, 10-12). From the text:
In the sections below, an effort is made to compare PEG-insulin preparations with respect to PEG molecular weight, PEGylation site, and chemistry. However, an accurate comparison was not always possible due to the presence of multiple PEG-insulin species in the preparations. Also, it could be that observed differences are due to differences in binding affinity to the receptor rather than absorption per se.
PEGylated insulins were examined that were all derivatized in positions B1 or B29 using the same PEG active agent (SPA). The actual synthetic routes to generate specific B1 or B29 isomers were different. Data for B1-5000-PEG-Insulin, 750-lot 2-PEG-insulin and 2K-lot 2-PEG-Insulin and 750-lot 5-PEG-insulin; their respective glucose suppression curves are shown in FIGS. 10 and 8b.
The results are illustrated in FIG. 11.
The impact of acetylation with PEGylation on insulin absorption through the lungs was evaluated. Acetylated derivatives were produced at different levels of acetylation and were all PEGylated at the same position (B1) with the same MW PEG (750 Da): 750-lot A1- and 750-lot A2-PEG-insulin (details are given in Table 2). The results are illustrated in FIG. 12.

Series [1] concerns Sprague-Dawley rats. Put plainly: Glucose depression after intravenous injection of PEG-insulins (Example 23). The following applies: for glucose depression (in vivo activity) in comparison to regular insulin: 20 μg/animal equivalent insulin mass (FIG. 8a). It is filed as in vivo, rat. The protocol:
The API concentration in the stock solutions was determined post-dosing by UV/VIS spectroscopy. All stock solutions were prepared on the study initiation day.
Whole blood (0.5 mL) was collected from the jugular vein catheter and placed into serum separator tubes at pre-dose (2 to 0.25 hours prior to dosing) and post-dose time points. After the sample was collected, an equivalent volume of PBS was administered, the catheter lumen was filled with 100 μL of heparinized PBS, and the cannula hub was plugged with a cotton applicator tip soaked in heparinized saline.
A small amount of whole blood was placed on the glucose test strip for blood glucose determination. The remainder of the sample was separated into serum by centrifugation for 10 minutes at 13,000 rpm. The serum was drawn off into a new Eppendorf tubes. The serum samples were stored at −20° C. on dry ice until shipped, and then stored at −80° C. until analysis.
The test and control insulin-containing articles were dissolved in saline (pH 7.4) and injected as an IV bolus into Sprague-Dawley rats. Prior to administration, the rats were lightly anesthetized for approximately 3-5 minutes in a Plexiglas induction chamber by inhaled 3.0-5.0% isoflurane mixed with air. The femoral vein catheter (FVC) was used for IV drug administration and the jugular vein catheter (JVC) was used for venous blood sampling to ensure no cross-contamination occurred.
A 1 mL syringe was fitted into the cannula, and the heparinized phosphate buffered saline solution present in the catheter lumen was removed by drawing back on the syringe plunger until blood filled the hub of the syringe. The heparinized phosphate buffered saline solution and the syringe were discarded and replaced by a new 1 mL syringe containing the appropriate IV dosing volume. The IV dose was then slowly and completely administered to the animal. The cannula was immediately flushed with 300 μL of phosphate buffered saline after dose administration. Blood was withdrawn from an indwelling catheter over a three-hour period. All drug doses refer to equivalent insulin mass delivered to the animals.
This study was designed to obtain a broad sense of the activity of the compounds rather than serve as an accurate activity measurement.

Another series relates to beagle dogs. Conditions: glucose clamp.
Series [2] concerns Sprague-Dawley rats.
Description: The liquid formulation was prepared in Dulbecco's phosphate buffered saline (DPBS) for IT administration. […] The dose was administered at a fixed volume of 300 μL; as a result, dosing solutions were prepared within 2 hours of administration by dilution of the stock solution.
The lowest dose that met the criteria of achieving nadir blood glucose concentrations between approximately 40 and 60 mg/dL in the first 4 hours after compound administration was chosen for the second leg of the study.
The test system included 19 pre-cannulated (jugular vein catheter (JVC)) adult male fasted (˜15-20 hours) Sprague-Dawley rats (Hilltop Lab Animals, Inc., Scottdale, Pa.). Ten animals weighing between 0.285-0.308 kg were used for the dose-ranging leg and 9 animals weighing between 0.288-0.313 kg were used for the PK/PD leg. Prior to dosing, the rats were lightly anesthetized by inhaled Isoflurane (Abbott Laboratories, Chicago, Ill.). […] Two readings of whole blood glucose concentration (mg/dL) per time point were made using a Glucometer Elite glucose monitor (Bayer Corp., Elkhart, Ind.). […] Pharmacodynamic analysis was performed using Microsoft Office Excel 2003.
Series [3] has as its system Sprague-Dawley rats. Nature of the series: Dose determination and PK/PD after intratracheal instillation (Example 25). It is filed as in vivo, rat. The following applies: for dose adequate to reach the target nadir glucose suppression: intratracheal instillation, dose ranging leg; for Cmin (minimum blood glucose concentration) / Tmin (time to Cmin): intratracheal, 180, 240, 640 μg/animal for 2K, 3K, 5K (Table 6). On the procedure:
A spectrometric measurement of compound concentration was also made.
Intratracheal Instillation (IT) was conducted as follows.
Sample Collection was performed as follows.
The glucose monitoring was conducted as follows.
The experimental protocol was modified for the analysis of the acetylated compounds. This resulted from the intent to use LC/MS-MS for the quantitation of compound concentrations in plasma. This analytical technique requires a larger volume of plasma to permit concentration of the sample and achieve the requisite increase in sensitivity. […] The protocol was therefore modified to increase the number of animals by two-fold and split the samples between these two cohorts.
To explore the data further, the PK profiles after IT doses were deconvoluted using IV PK parameters using the Wagner Nelson deconvolution procedure, to generate the cumulative absorption profile (FIG. 32).

The test system of series [4] is Sprague-Dawley rats. Conditions: for Cmin (minimum blood glucose concentration) / Tmin (time to Cmin): 15 μg/animal; for dose adequate to reduce blood glucose to the target (40-60 mg/dl): insulin mass.
Excerpt: The first phase established a dose of the compound required to achieve a target blood glucose reduction. This target blood glucose reduction was chosen to be the minimum reduction that is clearly recognizable as different from the resting blood glucose concentration.
The second phase examined the pharmacokinetics/pharmacodynamics of the molecule when administered to rats at the selected dose over an observation time sufficient for the glucose to return to baseline.
These experiments were conducted on male adult Sprague-Dawley rats of approximately 0.30-0.40 kg. Animals were obtained pre-cannulated with a jugular vein catheter (JVC) for blood sampling and, in the case of IV administration, and additional femoral vein catheter (FVC).
Intravenous administration of compounds was made via a femoral catheter in a volume of 300 μl.
Sample Collection was performed as follows. Blood samples of approximately 0.50 mL were collected from the JVC using a 1 mL syringe at each time point. A new syringe was used for each time point along with precautions to prevent contamination and carry-over.
The glucose monitoring was conducted as follows. Approximately 20 μL of whole blood was touched to the end of the glucose test strip of 2 Glucometer Elite glucose monitors for a duplicate determination of blood glucose concentrations. If there was a discrepancy of greater than 5 mg/dl, a third reading was taken.
The sample for compound quantitation in plasma, which served as basis for the PK analysis, was collected and processed as follows. The volume of blood remaining after the glucose measurement (˜480 μL) was anticoagulated with K2 EDTA and centrifuged to recover plasma. The plasma was collected and stored at −80° C. until analysis.
The mark [5] stands for this setting: rats, IT, 80 μg/animal, Group 1.
Setting [6] is: rats, IT, 160 μg/animal, Group 1.
Where [7] appears, read: rats, IT, 200 μg/animal, Group 1.
Setting [8] is: rats, IT, 270 μg/animal, Group 1.
The mark [9] stands for this setting: rats, IT, 270 μg/animal, Group 2 (PK/PD leg).
[10] abbreviates: rats, IT, 381 μg/animal, Group 1.
Where [11] appears, read: rats, IT, 381 μg/animal, Group 1, euthanized at 4 hr.

“And” between values parts separate entries of the source, which are not always exact repeats. Equal entries are not always repeated. “Also recorded” adds a separate entry of the source. Where two headings read alike, the source gives them in different places. Some results are limits rather than exact numbers.

Description for beagle dogs: The glucose clamp technique involved the continuous infusion of a 50% glucose solution at a rate such that normal serum glucose values were maintained throughout the experiment (e.g., normal range is 80-100 mg/dl).
Glucagon was also infused to maintain normal serum physiologic concentrations. […] Blood was withdrawn from an indwelling catheter over a 10-hour period.

As for “N^εB29-{3-[methoxy(ethoxy)750]proprionyl}insulin [B29 750-lot 5-PEG-insulin]”, in the series on rats (listed as B29 750 analog), the “glucose suppression profile compared to insulin control” value is reported as “glucose depression profile similar to the control”.

In the case of “N^αB1-{3-[methoxy(ethoxy)750]propionyl}insulin [750-lot 2-PEG-insulin]”, the “glucose depression (in vivo activity) in comparison to regular insulin” value (from here on “glucose depression (in vivo activity)”) in the series on Sprague-Dawley rats [1] was “smaller glucose depression in comparison to regular insulin”. Moreover, in the series on rats (80 μg insulin equivalent), the “time at which glucose suppression reaches nadir” value is 6 h and the “time of return of glucose to baseline” value is no less than 12 h. The “glucose suppression profile compared to insulin control” value with rats was “prolonged glucose suppression profile; also recorded: prolonged systemic glucose suppression compared to the insulin control”.

Take “N^εB29-{3-[methoxy(ethoxy)2K]propionyl}insulin [B29 2K-2-PEG-insulin]”: in the series on beagle dogs (powder inhalation), the “infused glucose required to maintain basal levels, versus insulin alone” value is “required less infused glucose to maintain basal levels”. Also, the “duration for which glucose infusion was necessary” value in the series on beagle dogs (powder inhalation (FIG. 13a)) is 420 min.

On to “di-N^αA1,N^εB29-(acetyl)-B1-{4-[methoxy(ethoxy)2K]butyryl}insulin [PEG2K-Ald-DiAc Insulin]”, for which, in the series on Sprague-Dawley rats [2] (rat, in vivo), the “hypoglycemia (<20 mg/dL blood glucose concentration)” value is reported as “caused hypoglycemia”. In addition, the “Cmin, individual animals” value in the series on Sprague-Dawley rats [2] (setting [5]) is 78 mg/dL and 85 mg/dL; in the series on Sprague-Dawley rats [2] (setting [6]) it was 86 mg/dL and 82 mg/dL; in the series with Sprague-Dawley rats [2] (setting [7]) it was 109 mg/dL and 37 mg/dL; in the series with Sprague-Dawley rats [2] (setting [8]), 31 mg/dL and 35 mg/dL; with Sprague-Dawley rats [2] (setting [11]) it was 20 mg/dL and 19^a mg/dL. Further, the “Cmin, mean” value was 81 mg/dL in the series on Sprague-Dawley rats [2] (setting [5]); 84 mg/dL in the series with Sprague-Dawley rats [2] (setting [6]); 73 mg/dL in the series with Sprague-Dawley rats [2] (setting [7]); 33 mg/dL with Sprague-Dawley rats [2] (setting [8]); 52 mg/dL and 52 ± 29 mg/dL in the series on Sprague-Dawley rats [2] (setting [9]); 20 mg/dL in the series on Sprague-Dawley rats [2] (setting [10]). The “Tmin, mean” value was 4.50 h with Sprague-Dawley rats [2] (setting [5]); 6.00 h with Sprague-Dawley rats [2] (setting [6]); 3.50 h in the series with Sprague-Dawley rats [2] (setting [7]); 5.50 h with Sprague-Dawley rats [2] (setting [8]); 5.80 h and 5.8 ± 3.5 h with Sprague-Dawley rats [2] (setting [9]); 4.00 h with Sprague-Dawley rats [2] (setting [10]). The “Tmin, individual animals” value is 6 h in the series on Sprague-Dawley rats [2] (setting [6]); 3 h and 8 h in the series with Sprague-Dawley rats [2] (setting [8]); 4 h with Sprague-Dawley rats [2] (setting [11]). The “animals in which target glucose suppression was not achieved” value in the series on Sprague-Dawley rats [2] (rats, IT, 270 μg, PK/PD leg) is reported as “three out of nine”. Besides, in the series with Sprague-Dawley rats [2] (rats, IT, 200-270 μg/animal), the “pharmacological effect on mean blood glucose versus saline (historic data)” value was “does have a pharmacological effect”. Also, the “dose selected for the PK/PD leg (nadir blood glucose about 40-60 mg/dL)” value with Sprague-Dawley rats [2] (rats, IT, dose range finding leg) came out at 270 µg.

As for “N^αA1,N^εB29-{3-[methoxy(ethoxy)750]propionyl}insulin [750-lot 3-PEG-insulin]”, the “glucose suppression profile compared to insulin control” value in the series on rats was “prolonged systemic glucose suppression compared to the insulin control”.

For the substance “N^αA1,N^εB29-{3-[methoxy(ethoxy)2K]propionyl}insulin [2000-PEG-insulin]”, the “glucose depression (in vivo activity)” value in the series on Sprague-Dawley rats [1] is recorded as “deviations were significant”.

Take “N^αA1,N^εB29-{3-[methoxy(ethoxy)750]propionyl}insulin [750-lot 4-PEG-insulin]”: the “reduction of insulin activity” value in the series with Sprague-Dawley rats [1] (80 μg insulin/animal (FIG. 9a)) is given as “about 50%”.

For “N^αB1-{3-[methoxy(ethoxy)2K]propionyl}insulin [PEG2000-B1 Insulin]”, in the series with Sprague-Dawley rats [3], the “dose adequate to reach the target nadir glucose suppression” value is listed as 180 μg/rat, the “Cmin (minimum blood glucose concentration)” value was determined as 38 ± 9 mg/dL and the “Tmin (time to Cmin)” value worked out at 290 ± 171 min. Moreover, in the series with Sprague-Dawley rats [3] (intratracheal, selected dose), the “time up to which blood glucose is still suppressed (not back to baseline)” value (“time up … (not back to baseline)” below) is no less than 9 h. Further, in the series on Sprague-Dawley rats [4] (rats, intravenous), the “Cmin (minimum blood glucose concentration)” value was determined as 42 ± 13 mg/dL, the “Tmin (time to Cmin)” value is 33 ± 15 min and the “dose adequate to reduce blood glucose to the target (40-60 mg/dl)” value (from here on “dose adequate to reduce blood glucose”) came out at 15 μg/rat. In addition, the “Cmin (minimum blood glucose concentration)” value in the series with Sprague-Dawley rats [4] (rats, intravenous, listed as PEG2000-B1) was 42 mg/dL.

Take “N^αB1-{3-[methoxy(ethoxy)3K]propionyl}insulin [PEG3000-B1 Insulin]”: in the series with Sprague-Dawley rats [3], the “dose adequate to reach the target nadir glucose suppression” value was found to be 240 μg/rat, the “Cmin (minimum blood glucose concentration)” value was determined as 45 ± 18 mg/dL and the “Tmin (time to Cmin)” value turned out to be 170 ± 96 min. In the series with Sprague-Dawley rats [3] (intratracheal, selected dose), the “time up … (not back to baseline)” value was no less than 9 h. In the series with Sprague-Dawley rats [4] (rats, intravenous), the “Cmin (minimum blood glucose concentration)” value was 36 ± 11 mg/dL, the “Tmin (time to Cmin)” value is given as 24 ± 12 min and the “dose adequate to reduce blood glucose” value is reported as 15 μg/rat. The “Cmin (minimum blood glucose concentration)” value in the series with Sprague-Dawley rats [4] (rats, intravenous, listed as PEG3000-B1) was 36 mg/dL.

Consider “N^αA1,N^εB29-{3-[methoxy(ethoxy)550]propionyl}insulin [550-lot 1-PEG-insulin]”, for which, in the series with rats, the “glucose suppression profile compared to insulin control” value is “much of the glucose suppression activity of insulin is restored”.

For “AKZO insulin: reference compound AKZO NOBEL Human Insulin [reference compound]”, the “time by which blood glucose was back to baseline” value in the series with Sprague-Dawley rats [4] (rats, intravenous (AKZO insulin 1-6 μg/rat; PEG-B1 insulins 15 μg/rat)) is no more than 90 min. The “Glucose Tmin” value in the series with Sprague-Dawley rats [4] (rats, intravenous, all doses 1-6 μg/rat) was determined as 15 min. Besides, in the series with Sprague-Dawley rats [4] (rats, intravenous), the “dose adequate to reduce blood glucose” value came out at 3 μg/rat.

Turning to “N^αB1-{3-[methoxy(ethoxy)5K]propionyl}insulin [PEG5000-B1 Insulin]”, the “glucose depression (in vivo activity)” value in the series with Sprague-Dawley rats [1] was “smaller glucose depression in comparison to regular insulin”. In the series on Sprague-Dawley rats [3], the “dose adequate to reach the target nadir glucose suppression” value came to 640 μg/rat, the “Cmin (minimum blood glucose concentration)” value is 37 ± 3 mg/dL and the “Tmin (time to Cmin)” value is 480 ± 0 min. Further, in the series on Sprague-Dawley rats [3] (intratracheal, selected dose), the “time to reach Cmin (Tmin)” value amounted to 8 h and the “time up … (not back to baseline)” value was no less than 16 h. In addition, the “time by which plasma concentration falls below the limit of quantitation” value with Sprague-Dawley rats [4] (rat, in vivo, iv) is no more than 6 h. For the same substance, in the series with Sprague-Dawley rats [4] (rats, intravenous), the “Cmin (minimum blood glucose concentration)” value is reported as 42 ± 9 mg/dL, the “Tmin (time to Cmin)” value amounted to 24 ± 8 min and the “dose adequate to reduce blood glucose” value is reported as 15 μg/rat. In addition, in the series with Sprague-Dawley rats [4] (rats, intravenous, listed as PEG5000-B1), the “Cmin (minimum blood glucose concentration)” value was determined as 42 mg/dL. Besides, in the series with rats (40 μg/animal, no data beyond 6 hours), the “time glucose remains below euglycemic levels” value is reported as “at least 6 hours”. Further, the “glucose suppression profile compared to insulin control” value in the series on rats is “little systemic glucose suppression compared to the insulin control”.

For the origin of these results see patent US20110171312A1, “MODIFIED THERAPEUTIC PEPTIDES, METHODS OF THEIR PREPARATION AND USE” (Nektar Therapeutics, priority 2008, published 2011).
